According to publication PMC7190078 (Journal of medicinal chemistry, 2019):

Key:
HDAC10 = biological target: T1, HDAC10 (Homo sapiens, UniProt Q969S8); test: HDAC inhibition, EMSA at fixed concentration; type: biochemical
T1 sequence (Q969S8 1-669): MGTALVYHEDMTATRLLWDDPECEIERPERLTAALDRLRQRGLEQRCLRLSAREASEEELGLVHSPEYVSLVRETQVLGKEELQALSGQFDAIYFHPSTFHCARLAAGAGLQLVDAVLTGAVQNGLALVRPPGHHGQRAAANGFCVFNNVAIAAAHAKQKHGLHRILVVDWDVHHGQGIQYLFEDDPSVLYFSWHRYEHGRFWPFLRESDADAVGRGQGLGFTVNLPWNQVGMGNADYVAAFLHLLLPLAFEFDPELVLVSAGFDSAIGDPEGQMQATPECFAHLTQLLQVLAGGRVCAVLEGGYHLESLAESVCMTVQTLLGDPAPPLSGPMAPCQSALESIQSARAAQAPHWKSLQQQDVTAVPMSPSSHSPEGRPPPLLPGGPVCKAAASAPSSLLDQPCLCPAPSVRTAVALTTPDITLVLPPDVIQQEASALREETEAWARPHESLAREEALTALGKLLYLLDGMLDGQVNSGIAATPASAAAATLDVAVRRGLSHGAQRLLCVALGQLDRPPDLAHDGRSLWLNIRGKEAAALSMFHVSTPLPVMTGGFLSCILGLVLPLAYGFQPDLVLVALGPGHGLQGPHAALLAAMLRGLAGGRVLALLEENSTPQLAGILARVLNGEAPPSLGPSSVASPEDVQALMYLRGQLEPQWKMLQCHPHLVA

HDAC3 = HDAC3 (Homo sapiens, UniProt O15379); test: HDAC inhibition, electrophoretic mobility shift assay; type: biochemical; details: EMSA, n = 2
Chain of HDAC3 (O15379 whole entry): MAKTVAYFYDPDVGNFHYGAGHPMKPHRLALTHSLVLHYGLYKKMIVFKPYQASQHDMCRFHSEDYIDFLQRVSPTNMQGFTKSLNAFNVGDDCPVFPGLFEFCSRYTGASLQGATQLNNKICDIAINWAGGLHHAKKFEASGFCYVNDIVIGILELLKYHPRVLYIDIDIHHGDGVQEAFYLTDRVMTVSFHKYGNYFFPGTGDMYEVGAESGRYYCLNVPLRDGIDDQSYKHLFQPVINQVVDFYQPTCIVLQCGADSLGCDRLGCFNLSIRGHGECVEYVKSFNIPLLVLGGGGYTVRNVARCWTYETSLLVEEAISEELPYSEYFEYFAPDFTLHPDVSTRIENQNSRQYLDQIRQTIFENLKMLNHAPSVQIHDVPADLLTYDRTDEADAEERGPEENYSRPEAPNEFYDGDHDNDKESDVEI
Chain of HDAC3 (Q9Y618 395-489 partner limits assumed): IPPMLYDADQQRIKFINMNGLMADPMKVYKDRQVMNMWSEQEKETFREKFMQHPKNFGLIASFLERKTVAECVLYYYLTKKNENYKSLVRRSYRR

HDAC8 = biological target: T2, HDAC8 (Homo sapiens, UniProt Q9BY41); test: as above; type: biochemical
T2 sequence (Q9BY41 1-377): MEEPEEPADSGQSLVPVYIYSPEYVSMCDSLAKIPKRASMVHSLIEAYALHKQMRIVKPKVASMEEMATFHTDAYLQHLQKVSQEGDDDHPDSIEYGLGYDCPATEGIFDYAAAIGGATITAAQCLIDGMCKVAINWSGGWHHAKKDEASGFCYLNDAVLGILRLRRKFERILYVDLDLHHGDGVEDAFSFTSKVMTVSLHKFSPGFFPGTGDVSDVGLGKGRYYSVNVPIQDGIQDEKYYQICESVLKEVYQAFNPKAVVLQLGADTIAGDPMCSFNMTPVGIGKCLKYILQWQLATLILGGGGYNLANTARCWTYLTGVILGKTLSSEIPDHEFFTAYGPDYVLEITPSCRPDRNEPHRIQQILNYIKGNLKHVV

HDAC4 = HDAC4 (Homo sapiens, UniProt P56524); test: HDAC inhibition, EMSA at fixed concentration; type: biochemical
Chain of HDAC4 (P56524 whole entry): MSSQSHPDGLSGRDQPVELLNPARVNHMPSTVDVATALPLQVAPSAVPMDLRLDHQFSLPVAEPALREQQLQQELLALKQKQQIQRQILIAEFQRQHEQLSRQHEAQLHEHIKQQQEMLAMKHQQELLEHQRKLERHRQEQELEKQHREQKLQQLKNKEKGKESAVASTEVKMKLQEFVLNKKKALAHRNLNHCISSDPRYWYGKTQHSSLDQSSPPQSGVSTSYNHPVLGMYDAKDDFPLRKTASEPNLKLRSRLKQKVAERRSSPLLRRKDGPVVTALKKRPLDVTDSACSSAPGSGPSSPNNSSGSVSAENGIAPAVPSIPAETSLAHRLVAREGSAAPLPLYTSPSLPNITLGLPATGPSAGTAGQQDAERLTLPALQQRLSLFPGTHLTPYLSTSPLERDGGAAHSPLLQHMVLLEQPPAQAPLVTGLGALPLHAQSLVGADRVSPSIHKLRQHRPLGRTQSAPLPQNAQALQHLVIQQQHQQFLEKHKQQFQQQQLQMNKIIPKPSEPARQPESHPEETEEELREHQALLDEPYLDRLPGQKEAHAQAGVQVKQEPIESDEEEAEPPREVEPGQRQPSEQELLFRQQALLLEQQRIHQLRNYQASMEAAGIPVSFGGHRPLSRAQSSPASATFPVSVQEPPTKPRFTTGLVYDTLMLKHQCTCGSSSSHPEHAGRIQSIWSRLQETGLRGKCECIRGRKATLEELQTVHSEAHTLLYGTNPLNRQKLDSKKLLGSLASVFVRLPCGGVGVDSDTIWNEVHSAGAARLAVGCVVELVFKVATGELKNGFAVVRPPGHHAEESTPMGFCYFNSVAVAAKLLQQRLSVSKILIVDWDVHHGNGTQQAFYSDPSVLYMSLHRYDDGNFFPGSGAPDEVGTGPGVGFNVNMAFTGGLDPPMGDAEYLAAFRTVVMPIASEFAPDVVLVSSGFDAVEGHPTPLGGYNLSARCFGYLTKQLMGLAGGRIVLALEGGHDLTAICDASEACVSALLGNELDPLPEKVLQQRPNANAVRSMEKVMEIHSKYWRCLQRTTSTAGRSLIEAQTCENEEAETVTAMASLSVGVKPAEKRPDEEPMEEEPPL

HDAC1 = HDAC1 (Homo sapiens, UniProt Q13547); test: HDAC inhibition, EMSA at fixed concentration; type: biochemical
Chain of HDAC1 (Q13547 whole entry): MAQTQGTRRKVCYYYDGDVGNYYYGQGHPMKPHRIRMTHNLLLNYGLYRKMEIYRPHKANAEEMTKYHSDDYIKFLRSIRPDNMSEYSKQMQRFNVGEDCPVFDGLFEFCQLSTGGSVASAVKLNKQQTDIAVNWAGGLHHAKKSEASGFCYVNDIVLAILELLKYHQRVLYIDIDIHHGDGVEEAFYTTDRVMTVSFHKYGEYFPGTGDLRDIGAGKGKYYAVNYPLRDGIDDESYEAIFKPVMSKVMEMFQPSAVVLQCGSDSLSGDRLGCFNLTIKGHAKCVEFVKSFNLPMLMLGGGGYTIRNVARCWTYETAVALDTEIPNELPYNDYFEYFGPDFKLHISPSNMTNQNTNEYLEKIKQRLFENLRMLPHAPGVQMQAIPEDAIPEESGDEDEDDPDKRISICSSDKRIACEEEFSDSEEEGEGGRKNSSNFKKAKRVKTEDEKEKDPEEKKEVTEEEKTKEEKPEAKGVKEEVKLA

HDAC6 = biological target: T3, HDAC6 (Homo sapiens, UniProt Q9UBN7); test: HDAC inhibition, electrophoretic mobility shift assay; type: biochemical; details: EMSA, n = 2
T3 sequence (Q9UBN7 1-1215): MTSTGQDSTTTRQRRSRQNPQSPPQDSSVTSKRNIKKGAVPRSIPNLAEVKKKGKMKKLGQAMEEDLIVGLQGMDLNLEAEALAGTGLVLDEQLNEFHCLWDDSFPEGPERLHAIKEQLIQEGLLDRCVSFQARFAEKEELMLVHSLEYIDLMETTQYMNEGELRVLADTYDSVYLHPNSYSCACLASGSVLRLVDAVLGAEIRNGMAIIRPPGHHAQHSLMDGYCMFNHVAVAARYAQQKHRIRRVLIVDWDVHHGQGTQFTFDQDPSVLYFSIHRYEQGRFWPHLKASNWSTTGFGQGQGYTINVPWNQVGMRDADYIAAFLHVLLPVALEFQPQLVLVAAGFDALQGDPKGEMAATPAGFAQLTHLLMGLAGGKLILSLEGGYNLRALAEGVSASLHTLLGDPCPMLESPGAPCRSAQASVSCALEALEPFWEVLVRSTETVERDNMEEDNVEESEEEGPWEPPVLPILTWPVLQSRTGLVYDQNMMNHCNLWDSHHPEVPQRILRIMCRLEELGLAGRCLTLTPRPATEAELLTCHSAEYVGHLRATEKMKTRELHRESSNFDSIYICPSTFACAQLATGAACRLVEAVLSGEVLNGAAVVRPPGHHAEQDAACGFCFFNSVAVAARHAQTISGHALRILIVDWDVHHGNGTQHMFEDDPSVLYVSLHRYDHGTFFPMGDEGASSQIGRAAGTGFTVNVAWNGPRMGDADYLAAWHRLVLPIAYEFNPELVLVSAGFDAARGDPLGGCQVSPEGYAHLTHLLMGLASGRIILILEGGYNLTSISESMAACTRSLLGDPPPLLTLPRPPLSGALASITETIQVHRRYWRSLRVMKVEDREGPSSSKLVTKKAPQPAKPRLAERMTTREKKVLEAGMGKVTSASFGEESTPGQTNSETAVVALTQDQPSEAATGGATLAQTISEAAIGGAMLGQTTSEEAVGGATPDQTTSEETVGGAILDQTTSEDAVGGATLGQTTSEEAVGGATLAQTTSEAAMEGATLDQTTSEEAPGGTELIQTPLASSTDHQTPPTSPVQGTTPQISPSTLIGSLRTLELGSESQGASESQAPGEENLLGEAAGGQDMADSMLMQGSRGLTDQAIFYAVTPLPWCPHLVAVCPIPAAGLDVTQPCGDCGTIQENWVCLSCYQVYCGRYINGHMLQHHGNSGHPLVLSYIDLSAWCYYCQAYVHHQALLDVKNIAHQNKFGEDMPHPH

HDAC11 = biological target: T4, HDAC11 (Homo sapiens, UniProt Q96DB2); test: as above; type: biochemical; details: EMSA, n = 2
T4 sequence (Q96DB2 1-347): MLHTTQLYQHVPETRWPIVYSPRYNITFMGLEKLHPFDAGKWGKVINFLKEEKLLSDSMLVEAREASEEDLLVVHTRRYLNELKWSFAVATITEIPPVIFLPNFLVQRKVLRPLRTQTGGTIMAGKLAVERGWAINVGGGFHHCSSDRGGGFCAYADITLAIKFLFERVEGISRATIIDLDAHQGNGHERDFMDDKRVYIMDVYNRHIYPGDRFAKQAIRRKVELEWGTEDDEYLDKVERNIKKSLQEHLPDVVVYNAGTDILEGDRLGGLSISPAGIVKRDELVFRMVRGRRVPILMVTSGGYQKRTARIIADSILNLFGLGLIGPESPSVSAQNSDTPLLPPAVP

[1] = Mouse plasma protein binding assay; type: in vitro ADME; details: both, CD-1, mouse
[2] = Single-dose pharmacokinetics in NSG mice; type: in vivo, mouse
[3] = Serum concentration after 5 days daily dosing in NSG mice; type: in vivo, mouse; details: for concentration at 5 h: NSG, mouse, serum, intraperitoneal
D458 recurrent MDB cells = test: Cytotoxicity assay in medulloblastoma cells; type: cell-based, human
NSG mice = test: Toxicity study; type: in vivo
[4] = system: equivalent immunodeficient mice; test: Orthotopic tumor model in immunodeficient mice, survival
[5] = system: chronic myelogenous leukemia K562 cells; test: Cytotoxicity assay; type: cell-based, human
[6] = system: MOLM-13 acute myeloid leukemia (AML) cells; test: Cytotoxicity assay; type: cell-based, human; details: MOLM-13 AML cells
[7] = system: D425 primary medulloblastoma (MDB) cells; test: Cytotoxicity assay in medulloblastoma cells; type: cell-based, human
[8] = Glutathione stability assay using HPLC; type: physicochemical; details: 100-fold excess reduced L-glutathione, HEPES buffer pH 7.4, after 25 h
[9] = system: brain tumor stem cell (BTSC) glioblastoma lines; test: Cytotoxicity assay in GBM BTSCs; type: cell-based, human; details: multiple BTSC glioblastoma lines
[10] = Glutathione stability assay using 19F NMR; type: physicochemical; details: 100-fold excess glutathione, after 16 h
[11] = Caco-2 permeability assay; type: in vitro ADME; details: human
STAT5b (total and pY694) = test: Western blot, STAT5 signaling in MV4–11 cells; type: cell-based, human; details: at 10 μM
[12] = system: PC-3 prostate cancer cells; test: Cytotoxicity in prostate cancer cells; type: cell-based, human
STAT3 (total and pY705) = test: Western blot, STAT3 signaling in MDA-MB-231 cells; type: cell-based, human; details: at 10-fold of the IC50
[13] = system: MRC-9 lung cells (noncancerous); test: Cytotoxicity assay; type: cell-based, human
MV4–11 AML cells = test: Cytotoxicity assay; type: cell-based; details: Homo sapiens, MV4-11, read-out: IC50 (cytotoxicity)

For `CN(O)C(=O)c1ccc(N(Cc2ccc(C(C)(C)C)cc2)C(=O)CN(Cc2c(F)c(F)c(F)c(F)c2F)S(=O)(=O)c2ccc(F)cc2)cc1` [compound 60, 4-(N-(4-(tert-Butyl)benzyl)-2-((4-fluoro-N-((perfluorophenyl)-methyl)phenyl)sulfonamido)acetamido)-N-hydroxy-N-methylbenzamide], the “% inhibition HDAC10” value (HDAC10; at 10 μM, n = 2) was 0%, the “% inhibition HDAC3” value (HDAC3; at 10 μM) was 0% and the “% inhibition HDAC8” value (HDAC8; at 10 μM, EMSA, n = 2) was 0%. The “% inhibition HDAC4” value (HDAC4; at 10 μM, n = 2) was 0%, the “% inhibition HDAC1” value (HDAC1; at 10 μM, n = 2) was 0% and the “% inhibition HDAC6” value (HDAC6; at 10 μM) was 12%. The “% inhibition HDAC11” value (HDAC11; at 10 μM) was 64%.
In the case of `CC(C)(C)c1ccc(CN(C(=O)CN(Cc2c(F)c(F)c(F)c(F)c2F)S(=O)(=O)c2ccc(F)cc2)c2ccc(C(=O)NO)cc2)cc1` [AES-135, 4-(N-(4-(tert-Butyl)benzyl)-2-((4-fluoro-N-((perfluorophenyl)-methyl)phenyl)sulfonamido)acetamido)-N-hydroxybenzamide], the recovery at 6 h ([1]; mouse plasma) is reported as 16 to 20%, the fraction unbound at 6 h ([1]; plasma) is reported as 0.004 and the “duration of micromolar (μM) concentrations” value ([2]; IP injection) is reported as greater than 10 h. The clearance rate ([2]; single 20 mg/kg IP, assuming bioavailability to be 100%) was 0.004 L/h, the “increase in blood concentration from quadrupling the dose” value ([3]; 40 vs 10 mg/kg) was roughly 5.7 fold and the concentration at 5 h ([3]; 10 mg/kg) was 323 ng/mL. The concentration at 5 h ([3]; 40 mg/kg) was 1830 ng/mL, the inhibition at 10 µM (HDAC10; read-out: % inhibition HDAC10, at 10 μM, n = 2) was no less than 70% and the cytotoxic potency (D458 recurrent MDB cells) was “nM activity”. For the same compound, the “toxicity assessed via weight loss” value (NSG mice; 60 mg/kg IP daily for 4–5 days, n = 6) was “no significant weight loss”, the “toxicity based on percentage weight loss compared to vehicle control” value (NSG mice; 10 and 40 mg/kg IP once a day for 5 days) was “No visible toxicity” and the survival advantage [4] was “no obvious survival advantage”. The sensitivity to cytotoxicity [5] was “resistant”, the inhibition at 10 µM (HDAC3; read-out: % inhibition HDAC3, at 10 μM) was greater than 90% and the IC50 (HDAC8) was 1100 nM. The inhibition at 10 µM (HDAC8; read-out: % inhibition HDAC8, at 10 μM, EMSA, n = 2) was greater than 90%, the inhibition at 10 µM (HDAC4; read-out: % inhibition HDAC4, at 10 μM, n = 2) was less than 20% and the cytotoxic potency [6] was “low μM potency”. The cytotoxic potency [7] was “nM activity”, the “stability to glutathione (HPLC)” value [8] was “No discernible reaction was observed” and the cytotoxic potency [9] was “low μM potency”. For the same compound, the inhibition at 10 µM (HDAC1; read-out: % inhibition HDAC1, at 10 μM, n = 2) was no less than 70%, the “stability to glutathione (19F NMR)” value [10] was “no displacement of fluoride was observed” and the Papp A→B at 5 µM [11] was 0.27 ×10⁻⁶ cm/s. The efflux ratio at 5 µM [11] was 3.83, the “effect on total STAT5b and pY694 STAT5b (Western blot)” value (STAT5b (total and pY694)) was “failed to suppress total STAT5b or pY694 STAT5b” and the inhibition at 10 µM (HDAC6; read-out: % inhibition HDAC6, at 10 μM) was greater than 90%. For the same compound, the cytotoxic potency [12] was “low μM potency”, the “effect on total STAT3 and pY705 STAT3 (Western blot)” value (STAT3 (total and pY705)) was “neither total STAT3 nor pY705 STAT3 was significantly reduced” and the “toxicity in noncancerous cells” value [13] was “minimal toxicity”. It also gave an inhibition at 10 µM (HDAC11; read-out: % inhibition HDAC11, at 10 μM) greater than 90% and an IC50 (MV4–11 AML cells) of 1880 ± 890 nM.
